PMC4592245 (PLoS ONE, 2015)

Assays:
SRC–3 [1] = target: T1, SRC–3 (Homo sapiens, UniProt Q9Y6Q9); test: Western blotting of SRC-3, dose response in LM3-3 cells; assay type: cell-based; set-up: endogenous in cells
heart muscle = test: H&E staining of heart tissues; details: 24 h after drug administration
[2] = tested on: MDA-MB-231-LM3-3 orthotopic breast tumors; test: Therapeutic efficacy in orthotopic TNBC mouse model; assay type: in vivo, nude mice
Method: To establish orthotopic breast tumors, 0.75 × 10^6 MDA-MB-231-LM3-3 cells were injected into one of the second mammary fat pads of nude mice (Charles River Laboratories, female, 6–7 weeks, n = 6/group). Phospho-bufalin was dissolved in PBS for tumor treatment. PBS was injected as the vehicle control. When tumors became palpable, generally 14 days after injection, mice were randomized into two groups. The treatment group was then injected with phospho-bufalin subcutaneously (0.75 mg/kg per dose, 3 doses per week) for 3 weeks while the control group received PBS. Tumor lengths and widths were measured three times per week. Tumor sizes were calculated by: (length × width × width)/2.

SRC–3 [3] = target: T1, SRC–3; test: SRC-3 levels in tumor tissues (Western blotting, IHC); assay type: in vivo, nude mice; set-up: from tissue; host or cells: orthotopic MDA-MB-231-LM3-3 xenograft tumours from nude mice; details: 0.75 mg/kg 3 times per week
Method: Cell lysate was prepared by adding RIPA buffer (containing 10 mM Tris-Cl pH 8.0, 1 mM EDTA, 0.5 mM EGTA, 1% Triton X–100, 0.1% sodium deoxycholate, 0.1% SDS, 140 mM NaCl, and protease inhibitors) to cells kept on ice. After spinning samples at 16,000 rpm for 15 minutes at 4°C, insoluble materials in the collected cell lysate were precipitated and discarded. The total protein concentration was measured using a Bradford protein assay. An equivalent mass of each sample was loaded and electrophoretically separated by 10% SDS-PAGE. Then proteins on PAGE the gel were transferred to a PVDF membrane. Anti-SRC–3 (Cell Signaling Technology Co. Cat# 2126) and anti-actin (Cell Signaling Technology Co. Cat# 8457) were used to probe the membranes.
The formalin-fixed, paraffin-embedded tissue was dried at 58°C for 1 hour in an oven, and de-paraffinized by soaking slides in xylene, ethanol, and finally distilled water. Antigen was retrieved by steaming slides in a target retrieval solution, 10 mM citrate buffer (pH 6.0), for 30 minutes. Endogenous peroxidases were blocked with a 3% of hydrogen peroxide solution in PBS buffer. The leftover hydrogen peroxide was removed with PBS rinse. […] To visualize the immunostaining, the sections were incubated with a fresh DAB solution (Dako Inc. Cat# K3468) and monitored under a microscope. […]

Ki–67 = test: Ki-67 immunohistochemistry of tumor tissue; assay type: in vivo, nude mice; details: 0.75 mg/kg 3 times per week
Method: The formalin-fixed, paraffin-embedded tissue was dried at 58°C for 1 hour in an oven, and de-paraffinized by soaking slides in xylene, ethanol, and finally distilled water. Antigen was retrieved by steaming slides in a target retrieval solution, 10 mM citrate buffer (pH 6.0), for 30 minutes. Endogenous peroxidases were blocked with a 3% of hydrogen peroxide solution in PBS buffer. The leftover hydrogen peroxide was removed with PBS rinse. […] To stain the SRC–3 antigen, anti-SRC–3 antibody (Mouse source, BD Biosciences Inc. Cat# 611104) was pre-diluted 1:400 in a normal serum blocking solution. To stain the Ki–67 antigen, anti-Ki–67 (Rabbit source, Cell Signaling Technology Inc. Cat#9027) was used in 1:10000 dilution. During the staining procedure, the sections were incubated with HRP-polymer conjugated secondary antibodies (Vector Laboratories, Cat#7401 for rabbit antibody, Cat#MP–2400 for mouse antibody). To visualize the immunostaining, the sections were incubated with a fresh DAB solution (Dako Inc. Cat# K3468) and monitored under a microscope. Once ideal signals were observed, the reaction was stopped by rinsing the slides with water. Nuclear counterstain was also performed by immersing slides in Mayer’s Hematoxylin and a bluing reagent.

ICR mice = test: Electrocardiogram (EKG) measurements; assay type: in vivo, mouse;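 note: Non-invasive EKG recorded at several successive time points, with each individual signal then analysed by physiologic waveform analysis software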
Method: Non-invasive EKG recordings were made using the ECGenie system (Mouse Specifics) at several subsequent time points. […] Data acquisition was performed using the program LabChart 6 (AD Instruments). Individual EKG signals were then evaluated using e-MOUSE physiologic waveform analysis software (Mouse Specifics) as previously described [31].

[4] = Pharmacokinetic study of 3-phospho-bufalin
Method: Five quality control (QC) samples at 10 ng/mL, 20 ng/mL, 500 ng/mL, 4000 ng/mL and 8000 ng/mL of plasma were prepared independently of those used for the calibration curves. QC samples were prepared on the day of analysis in the same way as the calibration standards.
Standards, QC samples, and unknown samples were injected into LC-MS/MS for quantitative analysis. The pharmacokinetic parameters of p-Buf were analyzed using WinNonLin. The PK trace was fitted into a non-compartmental extravascular model.

LM3-3 cells [5] = test: Single cell motility assay; assay type: cell-based
Method: Microtiter 96-well plates pre-coated with collagen V were covered with beads provided by a Cell Motility HCS kit (Thermo Scientific Co. Cat# K0800011). 500 LM3-3 cells were seeded in each bead-coated well. […] The cell track areas (pixels) were counted using Image J. To attain statistical significance, more than 50 cell tracks in each sample were counted.

LM3-3 cells [6] = test: Gefitinib and bufalin co-treatment, cell viability; assay type: cell-based
HCC1143 = test: Cell cytotoxicity assay (MTT), HCC1143; assay type: cell-based; details: Homo sapiens, HCC1143, 72 h
Method: (§1) TNBC cells (5000 to 7000 cells per well) were seeded in 96-well plates in medium supplemented with 10% FBS. […] Cell viabilities relative to untreated control cells were plotted using Graphpad Prism.

cancer cells = details: selective toxicity towards cancer cells; cited from earlier work
MDA-MB–231 = test: Cell cytotoxicity assay (MTT), MDA-MB-231; assay type: cell-based; details: MDA-MB-231, 72 h
Method: as §1

[7] = tested on: mouse primary hepatocytes; test: Viability of primary hepatocytes; assay type: cell-based; details: concentrations of up to 10 μM
Method: The HCC1143 cell line was grown in RPMI–1640 medium, SUM149PT and SUM159PT cell lines were grown in F–12 medium, and MDA-MB–231 cells were grown in DMEM. All culture media were supplemented with 10% fetal bovine serum. All cell lines were grown in a humidified incubator containing 5% CO2 at 37°C. Primary hepatocytes were isolated from an adult male mouse (C57BL) by collagenase perfusion (0.8 mg/mL; Sigma–Aldrich, C5138) through the portal vein as described previously, and maintained in M199 medium with 10% FBS. The viability of freshly isolated hepatocytes was verified using Trypan blue staining.
as §1

MDA-MB-231-LM3-3 = test: Cell cytotoxicity assay (MTT), MDA-MB-231-LM3-3; assay type: cell-based; details: MDA-MB-231-LM3-3, 72 h
Method: as §1

SUM159PT = test: Cell cytotoxicity assay (MTT), SUM159PT; assay type: cell-based; details: 72 h
Method: as §1

SUM149PT = test: Cell cytotoxicity assay (MTT), SUM149PT; assay type: cell-based; details: 72 h
Method: as §1

SRC–3 [8] = target: T1, SRC–3; set-up: Cell lysate was prepared by adding RIPA buffer; endogenous in cells; host or cells: HCC1143, SUM149PT, SUM159PT, MDA-MB-231, MDA-MB-231-LM3-3; method as in PMID 22053001; details: cited from earlier work
[9] = 7.5 mg/kg i.p., + 10 min post-injection
[10] = 7.5 mg/kg i.p., - 5 min (before injection)
[11] = 11.25 mg/kg i.p., + 5 min post-injection
[12] = 11.25 mg/kg i.p., + 10 min post-injection
[13] = 11.25 mg/kg i.p., + 15 min post-injection
[14] = 11.25 mg/kg i.p., - 5 min (before injection)
[15] = female, ICR, mouse, plasma, ip, 0.5 mg/kg

T1 sequence (Q9Y6Q9 whole entry): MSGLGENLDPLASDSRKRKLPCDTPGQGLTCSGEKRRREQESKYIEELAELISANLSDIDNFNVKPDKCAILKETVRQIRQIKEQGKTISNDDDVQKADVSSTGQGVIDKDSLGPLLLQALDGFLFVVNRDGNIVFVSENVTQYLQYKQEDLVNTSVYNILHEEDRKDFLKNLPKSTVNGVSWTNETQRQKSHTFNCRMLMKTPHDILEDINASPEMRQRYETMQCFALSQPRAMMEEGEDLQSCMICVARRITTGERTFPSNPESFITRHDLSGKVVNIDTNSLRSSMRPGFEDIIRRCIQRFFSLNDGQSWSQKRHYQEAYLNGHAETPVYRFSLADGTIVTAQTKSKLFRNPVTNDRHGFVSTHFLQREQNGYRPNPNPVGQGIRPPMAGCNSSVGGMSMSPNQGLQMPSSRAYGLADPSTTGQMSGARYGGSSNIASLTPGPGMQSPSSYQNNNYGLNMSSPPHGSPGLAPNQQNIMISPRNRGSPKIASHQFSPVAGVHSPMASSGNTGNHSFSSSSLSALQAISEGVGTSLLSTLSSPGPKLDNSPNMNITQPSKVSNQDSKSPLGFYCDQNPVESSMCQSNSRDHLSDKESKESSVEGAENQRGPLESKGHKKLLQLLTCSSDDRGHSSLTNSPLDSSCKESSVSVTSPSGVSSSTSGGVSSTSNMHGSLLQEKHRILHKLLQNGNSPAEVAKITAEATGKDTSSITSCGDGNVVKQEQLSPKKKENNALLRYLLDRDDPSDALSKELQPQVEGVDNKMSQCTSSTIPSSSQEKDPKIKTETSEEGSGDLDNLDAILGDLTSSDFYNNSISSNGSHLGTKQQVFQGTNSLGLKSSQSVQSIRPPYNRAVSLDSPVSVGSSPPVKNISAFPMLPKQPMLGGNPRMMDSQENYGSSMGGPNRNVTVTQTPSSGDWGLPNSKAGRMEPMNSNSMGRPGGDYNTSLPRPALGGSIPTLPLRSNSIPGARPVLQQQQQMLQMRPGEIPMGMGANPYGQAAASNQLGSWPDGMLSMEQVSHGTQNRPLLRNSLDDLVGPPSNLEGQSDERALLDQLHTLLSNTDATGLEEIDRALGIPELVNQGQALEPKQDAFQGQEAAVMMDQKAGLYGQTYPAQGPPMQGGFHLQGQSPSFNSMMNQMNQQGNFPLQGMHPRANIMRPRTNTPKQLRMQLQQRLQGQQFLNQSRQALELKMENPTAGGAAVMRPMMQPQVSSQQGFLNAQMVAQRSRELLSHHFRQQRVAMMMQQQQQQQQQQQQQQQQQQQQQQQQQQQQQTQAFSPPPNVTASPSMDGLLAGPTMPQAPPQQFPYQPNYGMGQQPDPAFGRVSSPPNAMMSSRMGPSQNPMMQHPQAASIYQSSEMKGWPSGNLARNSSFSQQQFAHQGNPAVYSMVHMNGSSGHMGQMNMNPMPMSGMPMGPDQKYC

## C[C@]12CC[C@H](OP(=O)(O)O)C[C@H]1CC[C@@H]1[C@@H]2CC[C@]2(C)[C@@H](c3ccc(=O)oc3)CC[C@]12O [3-phospho-bufalin, 3-Phospho-bufalin]
SRC–3 [1]; LM3-3 cells, Western blotting
  potency to inhibit SRC-3 levels compared with bufalin: less potent than bufalin
SRC–3 [1]; dose response
  downregulation of SRC-3 in LM3-3 cells (Western blotting): can also inhibit SRC–3 expression levels
Heart muscle
  damage to cardiomyocytes (histology): little damage to cardiomyocytes
[2]; 0.75 mg/kg 3 times per week
  body weight versus control at the end of the experiment: statistically the same body weight
[2]; 0.75 mg/kg, 3 times per week for 3 weeks, subcutaneously
  tumor growth (tumor volume): significantly inhibit TNBC tumor growth
[2]; day 31, 0.75 mg/kg 3 times per week
  tumor weight, PBS treated relative to treatment group: ~ 2.4 times
SRC–3 [3]
  SRC-3 level in tumor tissue (IHC staining) versus PBS: significantly lower
  SRC-3 protein levels in tumor tissues (Western blotting) versus PBS: significantly lower
Ki–67
  Ki-67 positive cells in tumor tissue (IHC): dramatically fewer Ki–67 positive cells
ICR mice; 7.5 mg/kg and 11.25 mg/kg i.p.
  changes in EKG parameters: did not observe significant changes in EKG parameters
ICR mice; [9]
  HR: 788.7 ± 1.2 BPM
  QRS: 11.0 ± 0.1 ms
  QT: 38.2 ± 0.9 ms
  QTc: 43.8 ± 1.0 ms
  RR: 76.1 ± 0.1 ms
  ST: 27.6 ± 0.9 ms
ICR mice; [10]
  HR: 754.7 ± 6.6 BPM
  QRS: 10.6 ± 0.1 ms
  QT: 40.2 ± 0.6 ms
  QTc: 45.0 ± 0.5 ms
  RR: 79.6 ± 0.7 ms
  ST: 30.1 ± 0.7 ms
ICR mice; [11]
  HR: 779.7 ± 1.5 BPM
  QRS: 10.9 ± 0.1 ms
  QT: 37.1 ± 0.3 ms
  QTc: 42.3 ± 0.4 ms
  RR: 77.0 ± 0.1 ms
  ST: 26.7 ± 0.4 ms
ICR mice; [12]
  HR: 761.3 ± 7.5 BPM
  QRS: 11.1 ± 0.2 ms
  QT: 38.1 ± 0.6 ms
  QTc: 43.0 ± 0.6 ms
  RR: 78.8 ± 0.8 ms
  ST: 26.6 ± 0.5 ms
ICR mice; [13]
  HR: 755.0 ± 1.0 BPM
  QRS: 11.5 ± 0.1 ms
  QT: 39.1 ± 0.9 ms
  QTc: 43.9 ± 0.9 ms
  RR: 79.5 ± 0.1 ms
  ST: 28.1 ± 0.8 ms
ICR mice; [14]
  HR: 798.0 ± 12.8 BPM
  QRS: 10.6 ± 0.3 ms
  QT: 39.1 ± 2.4 ms
  QTc: 45.1 ± 2.9 ms
  RR: 75.8 ± 0.2 ms
  ST: 29.0 ± 2.2 ms
[4]; [15]
  AUC(0-inf): 0.046 ± 0.018 µM·h
  AUC(0-t): 0.031 ± 0.018 µM·h
  Tmax: 15 min
  half-life: 44.5 ± 6.24 min
[4]; free bufalin detected in plasma
  conversion to parent bufalin in vivo: can be converted to parent bufalin in vivo

## C[C@]12CC[C@H](O)C[C@H]1CC[C@@H]1[C@@H]2CC[C@]2(C)[C@@H](c3ccc(=O)oc3)CC[C@]12O [bufalin]
LM3-3 cells [5]; 12 h
  toxicity toward LM3-3 cells under motility assay conditions: minimal toxicity
LM3-3 cells [5]; increasing concentrations
  motility of LM3-3 cells: decreased with increasing concentrations
Heart muscle
  damage to cardiomyocytes (histology): little damage to cardiomyocytes
LM3-3 cells [6]; 5 or 10 nM bufalin with gefitinib
  combination effect with gefitinib on LM3-3 cell viability: synergize with gefitinib
HCC1143
  IC50: 71.8 nM
Cancer cells
  IC50 values: low nM range
MDA-MB–231; Homo sapiens
  IC50: 20 nM
MDA-MB–231
  IC50: < 20 nM
[7]
  toxicity in mouse primary hepatocytes: did not cause any observable toxicity
MDA-MB-231-LM3-3; 72 h
  IC50: 16.6 nM
MDA-MB-231-LM3-3
  IC50: < 20 nM
SUM159PT
  IC50: < 20 nM
SUM159PT; Homo sapiens, SUM-159-PT
  IC50: 15.9 nM
SUM149PT
  IC50: < 20 nM
SUM149PT; Homo sapiens
  IC50: 16.6 nM
[4]; released bufalin after p-Buf 0.5 mg/kg i.p.
  time post injection at which bufalin became undetectable: 1 h

## COc1cc2ncnc(Nc3ccc(F)c(Cl)c3)c2cc1OCCCN1CCOCC1 [gefitinib]
LM3-3 cells [6]; concentrations up to 20 μM
  toxicity in LM3-3 cells, gefitinib alone: minimal toxicity

## Cc1cc2c(C(C)C)c(O)c(O)c(C=O)c2c(O)c1-c1c(C)cc2c(C(C)C)c(O)c(O)c(C=O)c2c1O [gossypol]
SRC–3 [8]
  IC50 values: micromolar
